Laboratory results reported in patent publication US20090186761A1, “Use of bio-derived surfactants for mitigating damage to plants from pests” (Cleareso, LLC, priority 2008, published 2009).

Legend:
[1] = tested on: Meloidognye hapla; settings: cited from earlier work; for toxicity to nematodes: in vitro; for kill of second stage juveniles: 50 ppm, 24 hours
[2] = tested on: root weevil, Diaprepes abbreviatus; experiment: Root weevil larvae held 30 minutes in concentration series of compounds; type: in vivo; settings: for Mortality of larvae: 30 minutes immersion, five larvae; for toxicity to larvae as judged: 0.1 to 5.0%, judged at 24 hours from black residue and activity
Method: The criterion for toxicity with these larvae is the lack of nipping behavior and its consequent black residue from blood loss and the lack of spontaneous movement.
Concentration Series. With the results from the time series above, larvae were held in different concentrations of STMB for 30 minutes. After 30 minutes, solutions were poured off and the trays wiped dry. Assessments were made at 24 or 48 hours with a few assessments at 72 hours dependent on effects. Treatments were: water or carbonated water as controls, and 0.1, 0.5, 1.0, 2.0, 3.0, 4.0 and 5.0% concentrations in either distilled water or carbonated water. Five larvae were used for each control and treatment. Pupae were not used in this assessment.
The use of carbonated water appeared not to increase the efficacy of this treatment. After 48 hours, there appeared to be no difference between 5% STMB in water and 5% STMB in carbonated water. […] In general, 48 hours should be enough for this assessment. Lack of toxicity or high toxicity should show in the first 24 hours.

[3] = tested on: M. javanica; settings: tomato root galling; cited from earlier work
[4] = Solubility of the test preparations in water (observations); type: physicochemical

## CCCCCCCC/C=C\CCCCCCCC(=O)O [Oleic acid]
[1]
  toxicity to nematodes: relatively nontoxic

## COC(=O)CCCC(=O)OC [1119-40-0, pentanedioic acid, dimethyl ester]
[2]; 0.1%, 48 hours
  Mortality of larvae: 3
[2]; 0.1%, 72 hours
  Mortality of larvae: 3
[2]; 1.0%, 48 hours
  Mortality of larvae: 1
[2]; 1.0%, 72 hours
  Mortality of larvae: 2
[2]; 3.0%, 48 hours
  Mortality of larvae: 0
[2]; 3.0%, 72 hours
  Mortality of larvae: 0
[2]; 5.0%, 48 hours
  Mortality of larvae: 1
[2]; 5.0%, 72 hours
  Mortality of larvae: 2
[2]; at end of 30 minutes immersion
  survival of larvae after 30 minutes: All larvae were alive

## Polyoxyethylene 10 tridecylether [24938-91-8]
[2]; 0.1%, 24 hours
  Mortality of larvae: 0
[2]; 0.1%, 48 hours
  Mortality of larvae: 0
[2]; 0.1%, 72 hours
  Mortality of larvae: 0
[2]; 1.0%, 24 hours
  Mortality of larvae: 2
[2]; 1.0%, 48 hours
  Mortality of larvae: 2
[2]; 1.0%, 72 hours
  Mortality of larvae: 2
[2]; 3.0%, 24 hours
  Mortality of larvae: 0
[2]; 3.0%, 48 hours
  Mortality of larvae: 0
[2]; 3.0%, 72 hours
  Mortality of larvae: 0
[2]; 5.0%, 24 hours
  Mortality of larvae: 0
[2]; 5.0%, 48 hours
  Mortality of larvae: 3
[2]; 5.0%, 72 hours
  Mortality of larvae: 3

## glycol pelargonate
[3]
  concentration producing reduced galling of plants: 6.4 microliters/liter

## CCCCCCCCC(=O)OC [Methyl perlargonate]
[3]
  concentration producing reduced galling of plants: 0.8 microliters/liter

## COC(=O)CCCCC(=O)OC [627-93-0, Dimethyl hexanedioate]
[4]; 0.1% in water
  solubility of preparation: soluble
[4]; 1.0% in water
  solubility of preparation: not completely soluble
[4]; 3.0% in water
  solubility of preparation: not completely soluble
[4]; 5.0% in water
  solubility of preparation: not completely soluble
[2]; 0.1%, 24 hours
  Mortality of larvae: 2
[2]
  toxicity to larvae as judged: non-toxic
[2]; 1.0%, 24 hours
  Mortality of larvae: 1
[2]; 3.0%, 24 hours
  Mortality of larvae: 2
[2]; 5.0%, 24 hours
  Mortality of larvae: 3

## CCCCCCCCCC(=O)O [decanoic acid]
[1]
  kill of second stage juveniles: killed all

## COC(=O)CCC(=O)OC [106-65-0, butanedioic acid, dimethyl ester]
[4]; 0.1% in water
  solubility of preparation: soluble
[4]; 1.0% in water
  solubility of preparation: just soluble
[4]; 3.0% in water
  solubility of preparation: not soluble
[4]; 5.0% in water
  solubility of preparation: not soluble
[2]; 0.1%, 24 hours
  Mortality of larvae: 2
[2]
  toxicity to larvae as judged: non-toxic
[2]; 1.0%, 24 hours
  Mortality of larvae: 2
[2]; 3.0%, 24 hours
  Mortality of larvae: 1
[2]; 5.0%, 24 hours
  Mortality of larvae: 1

## CCCCCCCCCCC(=O)O [undecanoic acid]
[1]
  kill of second stage juveniles: killed all

## CCCCCCCC/C=C\CCCCCCCC(=O)[O-].[K+] [potassium oleate]
[1]
  toxicity to nematodes: relatively nontoxic
